According to ChEMBL document CHEMBL1201862, “PubChem BioAssay data set” (2004):
Active and inactive are the calls of the source.

What was measured:
[1] = LGR2 antagonists, dose response, cell-based, HEK293, CRE-luciferase reporter, cherry pick (AID 743342); type: functional
[2] = A549 cell cytotoxicity, dose response, cytotoxicity control, plate reader, cherry-pick, antagonist series (AID 743412); type: functional, cell-based
NS3 = NS3 (Hepatitis C virus, UniProt A3EZJ3); test: HCV NS3 helicase inhibitor potency, dose response, biochemical, fluorescence polarization, ChemBridge library (AID 743264)
NS3, sequence (A3EZJ3 whole entry, the tested form may be a part): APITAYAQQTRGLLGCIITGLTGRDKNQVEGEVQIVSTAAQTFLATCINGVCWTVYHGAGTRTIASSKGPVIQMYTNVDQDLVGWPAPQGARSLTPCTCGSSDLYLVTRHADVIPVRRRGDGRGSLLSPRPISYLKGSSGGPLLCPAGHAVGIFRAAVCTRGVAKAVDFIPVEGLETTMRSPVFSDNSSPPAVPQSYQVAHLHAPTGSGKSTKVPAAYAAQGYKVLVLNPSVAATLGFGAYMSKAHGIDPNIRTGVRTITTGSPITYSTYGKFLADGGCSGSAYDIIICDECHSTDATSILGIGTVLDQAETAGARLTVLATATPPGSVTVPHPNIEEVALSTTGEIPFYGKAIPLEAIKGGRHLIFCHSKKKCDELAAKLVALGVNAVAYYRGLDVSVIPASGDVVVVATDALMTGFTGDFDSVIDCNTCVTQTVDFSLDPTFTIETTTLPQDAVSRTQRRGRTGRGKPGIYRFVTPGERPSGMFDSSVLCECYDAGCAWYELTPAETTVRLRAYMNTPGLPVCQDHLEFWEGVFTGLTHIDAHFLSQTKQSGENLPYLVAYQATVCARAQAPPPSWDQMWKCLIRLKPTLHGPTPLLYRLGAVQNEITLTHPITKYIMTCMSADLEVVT

[3] = biological target: Arf-GAP with SH3 domain, ANK repeat and PH domain-containing protein 1 (Homo sapiens, UniProt Q9ULH1); type: functional;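 note: biochemical fluorescence polarization dose–response screen measuring inhibition of ASAP1; ASAP1 GAP domain stimulating GTP hydrolysis by truncated human ARF1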
[4] = HEp-2 cell cytotoxicity, dose response, cytotoxicity control for RSV inhibitor project, HTS (AID 2410); type: functional; details: human respiratory syncytial virus
Leucine aminopeptidase = biological target: T1, Leucine aminopeptidase (Plasmodium falciparum 3D7, UniProt Q8IL11); test: P. falciparum M17LAP inhibitors, primary screen, biochemical, fluorogenic H-Leu-NHMec substrate, 1536-well (AID 1619); type: functional
T1 sequence (Q8IL11 whole entry): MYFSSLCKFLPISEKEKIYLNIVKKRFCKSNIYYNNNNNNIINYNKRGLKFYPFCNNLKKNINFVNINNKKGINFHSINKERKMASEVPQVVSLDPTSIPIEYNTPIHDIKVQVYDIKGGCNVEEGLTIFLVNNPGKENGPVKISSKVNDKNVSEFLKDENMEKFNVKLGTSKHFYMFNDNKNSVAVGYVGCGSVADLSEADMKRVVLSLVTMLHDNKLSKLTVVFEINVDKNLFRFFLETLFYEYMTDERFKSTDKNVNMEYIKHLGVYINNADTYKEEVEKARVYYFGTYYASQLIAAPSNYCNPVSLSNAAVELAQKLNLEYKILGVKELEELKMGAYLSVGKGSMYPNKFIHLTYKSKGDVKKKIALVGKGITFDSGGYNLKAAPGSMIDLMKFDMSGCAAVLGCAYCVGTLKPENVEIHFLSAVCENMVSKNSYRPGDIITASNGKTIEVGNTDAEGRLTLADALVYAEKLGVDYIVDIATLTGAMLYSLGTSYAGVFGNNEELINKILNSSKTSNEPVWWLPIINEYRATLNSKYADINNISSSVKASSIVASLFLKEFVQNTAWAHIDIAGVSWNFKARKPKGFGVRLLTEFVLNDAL

[5] = HEK293T cytotoxicity, dose response, cytotoxicity control for miR-122 modulator project, cell-based, inhibitor set, cherry-pick, set 2 (AID 720697); type: functional
Large T antigen = Large T antigen (Simian virus 40, UniProt P03070); type: functional, Betapolyomavirus macacae;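 note: Confirmatory-stage PubChem screen for compounds that inhibit SV40 T antigen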
Large T antigen, sequence (P03070 whole entry): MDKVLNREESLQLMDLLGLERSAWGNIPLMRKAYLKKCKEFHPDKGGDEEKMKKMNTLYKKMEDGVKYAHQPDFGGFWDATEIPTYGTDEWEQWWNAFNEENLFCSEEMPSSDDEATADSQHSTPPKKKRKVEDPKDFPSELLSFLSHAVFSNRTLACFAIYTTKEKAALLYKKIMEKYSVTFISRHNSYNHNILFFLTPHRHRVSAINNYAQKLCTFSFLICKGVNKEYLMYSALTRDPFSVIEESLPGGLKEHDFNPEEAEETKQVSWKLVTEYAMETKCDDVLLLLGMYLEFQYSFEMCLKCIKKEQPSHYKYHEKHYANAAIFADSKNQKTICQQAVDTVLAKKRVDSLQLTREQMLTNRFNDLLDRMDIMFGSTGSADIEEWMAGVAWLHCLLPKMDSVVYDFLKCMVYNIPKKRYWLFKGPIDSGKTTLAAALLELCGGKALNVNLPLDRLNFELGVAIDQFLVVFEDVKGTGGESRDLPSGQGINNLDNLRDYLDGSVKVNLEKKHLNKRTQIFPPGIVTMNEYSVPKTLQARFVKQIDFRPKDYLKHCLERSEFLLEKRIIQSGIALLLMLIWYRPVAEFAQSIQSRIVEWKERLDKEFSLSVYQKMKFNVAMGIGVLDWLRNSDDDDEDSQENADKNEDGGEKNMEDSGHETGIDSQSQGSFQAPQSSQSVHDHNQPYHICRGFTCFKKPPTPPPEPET

[6] = miR-122 activators in hepatoma reporter cells, dose response, cell-based, Huh7 psiCHECK-miR122, Renilla luciferase, cherry-picked (AID 651956); type: functional;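 note: huh7 hepatoma cells stably carrying a psiCHECK-2 miR-122 sensor plasmid; renilla luciferase signal reporting endogenous miR-122 activity after 48 h compound exposure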
[7] = biological target: Fructose-bisphosphate aldolase (Mycobacterium tuberculosis, UniProt P9WQA3); test: Fluorescence-based biochemical high throughput dose response assay for inhibitors of the fructose-bisphosphate aldolase (FBA) of M. tuberculosis.; type: functional
HeLa = test: HeLa cell cytotoxicity, dose response, cytotoxicity control for MITF activator project, CellTiter-Glo luminescence, cherry-pick samples (AID 540259); type: functional, cell-based; details: Homo sapiens
[8] = biological target: T2, Oxysterols receptor LXR-beta (Homo sapiens, UniProt P55055); type: functional, cell-based;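 note: agonist activity at LXR measured by a cell-based luminescence readout across a dose range, run as a counterscreen for daf-12 agonists; HEK293 cells with Gal4-LXR fusion and GAL4-driven luciferase reporter; potency for activation of Gal4-LXR reporter so compounds are agonists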
T2 sequence (P55055 whole entry): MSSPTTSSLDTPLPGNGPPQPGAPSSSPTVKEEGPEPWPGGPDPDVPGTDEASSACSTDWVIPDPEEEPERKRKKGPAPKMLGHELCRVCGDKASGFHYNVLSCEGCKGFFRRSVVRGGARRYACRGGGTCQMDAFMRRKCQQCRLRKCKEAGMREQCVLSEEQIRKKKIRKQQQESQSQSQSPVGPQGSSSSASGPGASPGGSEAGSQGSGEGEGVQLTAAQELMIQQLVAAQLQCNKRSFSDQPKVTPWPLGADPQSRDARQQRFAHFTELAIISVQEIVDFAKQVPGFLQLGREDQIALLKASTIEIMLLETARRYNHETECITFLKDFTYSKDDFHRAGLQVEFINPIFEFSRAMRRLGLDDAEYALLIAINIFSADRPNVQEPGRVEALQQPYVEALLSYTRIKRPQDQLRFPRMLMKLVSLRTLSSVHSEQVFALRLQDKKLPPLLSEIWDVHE

Protein skinhead-1 = biological target: T3, Protein skinhead-1 (Caenorhabditis elegans, UniProt P34707); type: functional
T3 sequence (P34707 whole entry): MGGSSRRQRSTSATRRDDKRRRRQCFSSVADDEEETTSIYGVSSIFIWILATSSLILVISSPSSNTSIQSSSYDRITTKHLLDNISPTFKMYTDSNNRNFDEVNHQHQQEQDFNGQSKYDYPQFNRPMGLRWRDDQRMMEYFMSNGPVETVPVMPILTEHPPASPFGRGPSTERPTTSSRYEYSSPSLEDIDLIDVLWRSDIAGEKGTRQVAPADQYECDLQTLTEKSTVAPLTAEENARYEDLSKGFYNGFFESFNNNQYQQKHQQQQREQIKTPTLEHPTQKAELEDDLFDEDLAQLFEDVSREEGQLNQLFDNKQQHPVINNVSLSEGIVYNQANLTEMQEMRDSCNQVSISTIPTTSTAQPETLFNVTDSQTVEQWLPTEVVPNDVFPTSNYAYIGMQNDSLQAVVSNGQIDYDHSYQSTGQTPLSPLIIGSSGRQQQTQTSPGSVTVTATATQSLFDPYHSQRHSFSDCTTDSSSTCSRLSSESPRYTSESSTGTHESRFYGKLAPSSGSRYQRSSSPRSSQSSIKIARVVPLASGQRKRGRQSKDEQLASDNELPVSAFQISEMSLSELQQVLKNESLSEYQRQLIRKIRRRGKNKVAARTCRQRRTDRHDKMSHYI

[9] = MITF Orthogonal Assay: SK-MEL-5 CTG Assay Measured in Cell-Based System Using Plate Reader - 2084-02_Inhibitor_Dose_DryPowder_Activity_Set7.; type: functional
[10] = MITF: Counter assay: A375 proliferation Measured in Cell-Based System Using Plate Reader - 2084-03_Inhibitor_Dose_DryPowder_Activity_Set8.; type: functional; details: A-375
[11] = biological target: T4, Probable nicotinate-nucleotide adenylyltransferase (Staphylococcus aureus (strain N315), UniProt P65502); type: functional, Staphylococcus aureus subsp. aureus N315;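 for IC50 Mean: confirmatory dose-response retesting of NadD inhibitor hits first found in an ultra-high-throughput screen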
T4 sequence (P65502 whole entry): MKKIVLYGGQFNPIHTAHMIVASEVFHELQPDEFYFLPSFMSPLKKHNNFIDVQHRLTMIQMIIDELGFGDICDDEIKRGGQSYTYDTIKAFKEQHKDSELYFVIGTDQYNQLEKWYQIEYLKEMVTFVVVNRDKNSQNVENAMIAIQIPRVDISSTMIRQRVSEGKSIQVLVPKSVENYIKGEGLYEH

H9c2 = test: cells; type: functional, cell-based; details: Rattus norvegicus, H9c2, Myocardium
[12] = biological target: T4, Probable nicotinate-nucleotide adenylyltransferase; type: functional, Staphylococcus aureus subsp. aureus N315; details: read-out: IC50_Mean
Albumin = Albumin (Bos taurus, UniProt P02769); test: Counterscreen for inhibitors of T-cell receptor (TCR)-CD3 interaction: Fluorescence-based biochemical high throughput dose response assay to identify inhibitors of T-cell receptor (TCR)-CD3 interaction using a TAMRA-labeled BSA probe.; type: functional
Albumin, sequence (P02769 whole entry): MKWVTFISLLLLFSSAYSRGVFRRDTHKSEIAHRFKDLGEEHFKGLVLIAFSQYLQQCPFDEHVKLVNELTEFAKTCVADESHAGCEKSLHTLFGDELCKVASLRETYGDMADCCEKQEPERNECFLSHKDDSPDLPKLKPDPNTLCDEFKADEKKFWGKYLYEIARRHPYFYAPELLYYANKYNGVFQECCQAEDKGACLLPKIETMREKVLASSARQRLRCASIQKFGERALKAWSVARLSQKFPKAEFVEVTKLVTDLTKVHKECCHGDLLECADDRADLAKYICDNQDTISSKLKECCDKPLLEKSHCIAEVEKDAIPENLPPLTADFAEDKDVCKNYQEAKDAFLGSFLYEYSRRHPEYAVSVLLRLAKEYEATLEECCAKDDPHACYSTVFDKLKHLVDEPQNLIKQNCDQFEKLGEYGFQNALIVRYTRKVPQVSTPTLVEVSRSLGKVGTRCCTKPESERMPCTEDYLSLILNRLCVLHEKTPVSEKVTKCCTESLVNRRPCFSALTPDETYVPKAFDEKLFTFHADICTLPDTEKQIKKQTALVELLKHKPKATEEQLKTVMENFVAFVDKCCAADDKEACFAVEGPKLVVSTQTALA

[13] = Counterscreen for inhibitors of Trypanosoma brucei methionyl tRNA synthetase (MetRS): Luminescence-based cell-based high throughput dose response assay to identify compounds that are cytotoxic to Jurkat human T lymphocyte cells.; type: functional
[14] = biological target: T5, Methionyl-tRNA synthetase, putative (Trypanosoma brucei brucei, UniProt Q38C91); type: functional, Trypanosoma brucei brucei strain 927/4 GUTat10.1
T5 sequence (Q38C91 whole entry): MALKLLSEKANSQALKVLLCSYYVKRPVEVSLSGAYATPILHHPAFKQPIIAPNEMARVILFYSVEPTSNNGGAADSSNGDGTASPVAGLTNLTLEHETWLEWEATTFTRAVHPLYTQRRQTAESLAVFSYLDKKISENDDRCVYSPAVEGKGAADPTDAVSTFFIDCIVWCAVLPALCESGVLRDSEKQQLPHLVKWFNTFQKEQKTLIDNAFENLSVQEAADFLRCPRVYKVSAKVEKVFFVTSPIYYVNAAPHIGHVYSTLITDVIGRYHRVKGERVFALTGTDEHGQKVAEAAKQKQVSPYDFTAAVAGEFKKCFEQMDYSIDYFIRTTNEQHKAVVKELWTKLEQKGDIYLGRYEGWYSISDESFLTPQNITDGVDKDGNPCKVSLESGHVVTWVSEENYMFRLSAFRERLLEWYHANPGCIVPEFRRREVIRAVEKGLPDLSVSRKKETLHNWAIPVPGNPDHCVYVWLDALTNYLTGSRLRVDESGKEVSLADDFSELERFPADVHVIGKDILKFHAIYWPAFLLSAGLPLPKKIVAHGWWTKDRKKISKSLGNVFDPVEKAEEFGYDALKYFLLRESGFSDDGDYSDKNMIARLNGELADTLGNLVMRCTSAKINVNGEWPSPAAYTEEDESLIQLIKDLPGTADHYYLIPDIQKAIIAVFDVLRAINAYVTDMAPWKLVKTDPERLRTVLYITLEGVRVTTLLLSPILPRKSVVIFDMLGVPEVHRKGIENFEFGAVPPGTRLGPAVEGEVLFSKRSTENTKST

[15] = biological target: T5, Methionyl-tRNA synthetase, putative; type: functional, Trypanosoma brucei brucei strain 927/4 GUTat10.1; remark: listed apart in the source
[16] = biological target: T6, Sentrin-specific protease 8 (Homo sapiens, UniProt Q96LD8); type: functional
T6 sequence (Q96LD8 whole entry): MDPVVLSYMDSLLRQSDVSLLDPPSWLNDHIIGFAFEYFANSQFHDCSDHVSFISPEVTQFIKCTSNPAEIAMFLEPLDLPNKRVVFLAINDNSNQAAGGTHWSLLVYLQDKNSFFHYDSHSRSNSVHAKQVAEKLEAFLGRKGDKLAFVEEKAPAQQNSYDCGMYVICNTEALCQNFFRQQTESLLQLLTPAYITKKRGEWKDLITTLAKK

[17] = biological target: T6, Sentrin-specific protease 8; type: functional; remark: listed apart in the source
[18] = biological target: T7, Scavenger receptor class B member 1 (Mus musculus, UniProt Q61009); test: inhibitors of SR-BI dependent HDL uptake, dose response, ldlA[mSR-BI] CHO cells, fluorescence plate reader, dry powder, set 9 (AID 623880); type: functional, cell-based
T7 sequence (Q61009 whole entry): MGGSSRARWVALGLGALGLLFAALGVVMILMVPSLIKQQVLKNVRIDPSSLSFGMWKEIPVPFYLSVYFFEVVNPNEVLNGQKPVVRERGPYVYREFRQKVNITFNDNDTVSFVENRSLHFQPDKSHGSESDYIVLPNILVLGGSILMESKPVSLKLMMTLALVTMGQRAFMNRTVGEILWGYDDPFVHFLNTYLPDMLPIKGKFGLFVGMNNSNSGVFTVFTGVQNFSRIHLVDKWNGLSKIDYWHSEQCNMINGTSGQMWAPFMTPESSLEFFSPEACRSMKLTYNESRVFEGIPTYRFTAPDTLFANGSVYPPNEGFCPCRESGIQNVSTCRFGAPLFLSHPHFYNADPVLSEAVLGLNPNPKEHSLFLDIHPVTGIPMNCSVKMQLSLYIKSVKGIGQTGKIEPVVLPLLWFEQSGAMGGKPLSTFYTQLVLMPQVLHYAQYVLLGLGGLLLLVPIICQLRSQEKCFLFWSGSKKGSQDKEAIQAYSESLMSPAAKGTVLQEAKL

[19] = biological target: T7, Scavenger receptor class B member 1; test: inhibitors of SR-BI-mediated HDL uptake, dose response, cell-based, ldlA[mSR-BI] CHO, DiI fluorescence, dry powder, set 10 (AID 624029); type: functional
[20] = A Cell-Based Confirmatory Screen for Compounds that Inhibit VEEV, TC-83 (8).; type: functional
Protein S100-A4 = Protein S100-A4 (Homo sapiens, UniProt P26447); test: S100A4-myosin IIA binding inhibitor potency, dose response, biochemical, fluorescence polarization, cherry-picked hits (AID 687001); type: functional
Protein S100-A4, sequence (P26447 whole entry): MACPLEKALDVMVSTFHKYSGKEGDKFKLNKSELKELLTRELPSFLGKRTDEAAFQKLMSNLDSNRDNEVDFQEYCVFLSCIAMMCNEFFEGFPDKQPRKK

Nonstructural protein 1 = Nonstructural protein 1 (Influenza A virus, UniProt Q194T2); type: functional, Influenza A virus (A/California/07/2009(H1N1))
Nonstructural protein 1, sequence (Q194T2 whole entry): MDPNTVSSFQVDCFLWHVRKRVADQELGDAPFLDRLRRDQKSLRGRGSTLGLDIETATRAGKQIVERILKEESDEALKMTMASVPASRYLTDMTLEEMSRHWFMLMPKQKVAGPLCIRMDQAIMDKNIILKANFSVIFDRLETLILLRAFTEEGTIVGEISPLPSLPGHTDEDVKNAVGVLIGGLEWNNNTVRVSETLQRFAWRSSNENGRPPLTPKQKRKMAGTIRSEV

Aminopeptidase N = biological target: T8, Aminopeptidase N (Plasmodium falciparum FcB1/Columbia, UniProt O96935); test: P. falciparum M1AAP inhibitors, biochemical, fluorogenic H-Leu-NHMec substrate, 1536-well (AID 1445); design: species or system Plasmodium falciparum 3D7, 3D7
T8 sequence (O96935 whole entry): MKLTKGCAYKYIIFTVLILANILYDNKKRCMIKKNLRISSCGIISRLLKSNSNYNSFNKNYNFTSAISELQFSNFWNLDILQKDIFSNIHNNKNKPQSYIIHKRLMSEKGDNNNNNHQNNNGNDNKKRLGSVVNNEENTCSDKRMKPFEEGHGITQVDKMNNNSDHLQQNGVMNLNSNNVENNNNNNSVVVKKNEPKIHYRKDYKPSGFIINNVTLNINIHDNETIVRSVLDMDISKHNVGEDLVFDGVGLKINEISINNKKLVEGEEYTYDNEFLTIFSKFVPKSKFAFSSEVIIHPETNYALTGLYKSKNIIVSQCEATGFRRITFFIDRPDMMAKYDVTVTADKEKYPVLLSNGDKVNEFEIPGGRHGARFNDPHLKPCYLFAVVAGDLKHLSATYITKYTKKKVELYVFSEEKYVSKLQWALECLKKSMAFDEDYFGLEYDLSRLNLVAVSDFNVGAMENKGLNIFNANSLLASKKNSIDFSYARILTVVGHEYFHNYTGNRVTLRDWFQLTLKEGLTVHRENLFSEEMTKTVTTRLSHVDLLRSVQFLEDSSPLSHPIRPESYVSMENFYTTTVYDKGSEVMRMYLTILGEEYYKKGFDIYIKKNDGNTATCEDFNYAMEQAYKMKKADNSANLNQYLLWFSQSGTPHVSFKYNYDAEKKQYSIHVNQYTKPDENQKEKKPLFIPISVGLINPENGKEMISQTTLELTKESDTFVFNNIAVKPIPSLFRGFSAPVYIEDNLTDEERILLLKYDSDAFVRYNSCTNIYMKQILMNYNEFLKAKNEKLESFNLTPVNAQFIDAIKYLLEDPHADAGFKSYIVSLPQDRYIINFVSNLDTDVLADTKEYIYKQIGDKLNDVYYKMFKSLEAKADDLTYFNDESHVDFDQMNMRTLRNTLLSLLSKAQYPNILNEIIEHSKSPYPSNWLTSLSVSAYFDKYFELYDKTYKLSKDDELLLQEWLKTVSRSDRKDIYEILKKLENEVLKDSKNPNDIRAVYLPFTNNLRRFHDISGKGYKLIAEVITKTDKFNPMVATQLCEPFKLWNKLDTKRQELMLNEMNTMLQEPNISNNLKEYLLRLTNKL

[21] = biological target: Endoplasmic reticulum aminopeptidase 1 (Homo sapiens, UniProt Q9NZ08); test: ERAP1 aminopeptidase inhibitors, dose response, biochemical, cherry-pick, set 2, plate reader (AID 743314)
Endoplasmic reticulum aminopeptidase 1, sequence (Q9NZ08 whole entry): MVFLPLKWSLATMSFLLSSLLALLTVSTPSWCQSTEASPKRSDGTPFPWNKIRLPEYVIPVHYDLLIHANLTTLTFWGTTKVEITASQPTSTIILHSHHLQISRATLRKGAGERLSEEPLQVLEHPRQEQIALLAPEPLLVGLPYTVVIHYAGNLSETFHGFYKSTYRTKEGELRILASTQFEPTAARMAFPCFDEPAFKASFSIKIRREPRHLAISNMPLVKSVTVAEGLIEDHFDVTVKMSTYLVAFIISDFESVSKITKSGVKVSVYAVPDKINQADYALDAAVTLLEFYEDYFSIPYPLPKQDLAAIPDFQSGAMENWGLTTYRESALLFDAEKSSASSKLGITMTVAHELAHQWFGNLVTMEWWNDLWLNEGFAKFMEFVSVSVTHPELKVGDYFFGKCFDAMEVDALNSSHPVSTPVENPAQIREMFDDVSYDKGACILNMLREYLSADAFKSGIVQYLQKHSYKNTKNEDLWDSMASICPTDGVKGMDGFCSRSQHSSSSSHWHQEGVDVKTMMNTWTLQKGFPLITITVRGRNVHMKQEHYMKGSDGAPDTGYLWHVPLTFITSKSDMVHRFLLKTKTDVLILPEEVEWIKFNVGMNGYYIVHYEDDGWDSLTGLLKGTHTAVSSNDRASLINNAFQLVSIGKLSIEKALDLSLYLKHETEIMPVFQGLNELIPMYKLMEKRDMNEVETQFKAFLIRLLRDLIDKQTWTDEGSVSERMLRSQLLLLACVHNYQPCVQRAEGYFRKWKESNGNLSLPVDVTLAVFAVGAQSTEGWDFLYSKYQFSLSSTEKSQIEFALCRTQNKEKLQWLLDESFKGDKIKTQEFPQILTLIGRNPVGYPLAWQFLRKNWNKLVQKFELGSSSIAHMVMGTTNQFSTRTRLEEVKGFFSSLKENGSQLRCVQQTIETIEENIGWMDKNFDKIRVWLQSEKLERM

## C[C@H]1CCCCO[C@@H](CN(C)C(=O)Nc2ccccc2)[C@@H](C)CN([C@@H](C)CO)C(=O)c2cc(NC(=O)NC3CCCCC3)ccc2O1
[1]
  AC50: 5.33 µM (active)
[2]
  AC50: 43.3 µM (active)

## Cc1ccc(C)n1NC1=NC(=O)CS1
NS3
  IC50: 27.2 µM (inactive)

## Fc1ccc(Nc2nc(-c3ccncc3)nc3ccccc23)cc1F
[3]
  IC50: 46.5 µM (inactive)
[4]
  CC50: 45.1 µM (active)

## Cc1cccc(C)c1NC(=O)CSCC(=O)c1ccc(O)c(O)c1
Leucine aminopeptidase
  IC50: 20.9 µM (active)
[5]
  AC50: 2.43 µM (active)
Large T antigen
  IC50: 12.8 µM (active)
[6]
  AC50: 15 µM (active)

## Cc1nc2oc3c(=O)nc[nH]c3c2c2c1COC(C)(C)C2
[7]
  IC50: 2.33 µM (active)

## C/C(=N/OCc1ccc(Br)cc1)c1ccccn1
HeLa
  AC50: 90.3 µM (active)
[8]
  EC50: > 67.6 µM (inactive)
Protein skinhead-1
  IC50: 34.5 µM (active)

## O=C1C=C(Nc2ccc(F)cc2)C(=O)c2ccccc21
[9]
  AC50: 0.595 µM (active)
[10]
  AC50: > 70 µM (inactive)

## CCOC(=O)Cn1/c(=N/C(=O)c2cc(-c3cccs3)nc3ccccc23)sc2cc(S(N)(=O)=O)ccc21
[11]
  IC50: 14.2 µM (active)
H9c2
  IC50: > 79 µM (inactive)
[12]
  IC50: 31.4 µM (active)
Albumin
  IC50: > 94.1 µM (inactive)

## COc1ccc(OCc2cc(C(=O)NCc3nc(C)cs3)no2)c(Cl)c1
[13]
  IC50: 83.3 µM (inactive)
[14]
  IC50: 46.9 µM (inactive)
[15]
  IC50: 23.5 µM (inactive)

## CCCCO/C(O)=C1\C(C)=NC2(O)c3ccccc3C(=O)C12O (stereo unspecified)
[16]
  IC50: 10 µM (active)
[17]
  IC50: 4.54 µM (active)

## C[C@@H]1CN([C@H](C)CO)C(=O)c2cc(NC(=O)C3CCCCC3)ccc2O[C@H]1CN(C)S(=O)(=O)c1cccc(Cl)c1
[18]
  AC50: 0.796 µM (active)
[19]
  AC50: 1.22 µM (active)

## CCN1CCN(C)C/C1=N\c1ccc([N+](=O)[O-])cc1C(=O)Nc1ccccc1
[20]
  IC50: < 0.22 µM (active)

## CC1N(C)c2cc(NC(=O)c3ccco3)ccc2C1(C)C (stereo unspecified)
Protein S100-A4
  AC50: 1.91 µM (active)
Nonstructural protein 1
  IC50: 69.6 µM (active)

## CN1CCN(Cc2c(O)ccc3cc(-c4ccccn4)c(=O)oc23)CC1
Aminopeptidase N
  IC50: 52.2 µM (active)
[21]
  AC50: 1.88 µM (active)
